In publication PMC8380656, “The structure and flexibility analysis of the Arabidopsis synaptotagmin 1 reveal the basis of its regulation at membrane contact sites” (Life Science Alliance, 2021):

T1: SYT1C2A (Arabidopsis thaliana, UniProt Q9SKR2)
T1 construct: gene SYT1; C2A domain, residues K253-E397; pGEX6P1, GST tag cleaved with PreScission protease; expressed in E. coli Rosetta 2 (DE3) pLysS
T1 sequence (Q9SKR2 253-397): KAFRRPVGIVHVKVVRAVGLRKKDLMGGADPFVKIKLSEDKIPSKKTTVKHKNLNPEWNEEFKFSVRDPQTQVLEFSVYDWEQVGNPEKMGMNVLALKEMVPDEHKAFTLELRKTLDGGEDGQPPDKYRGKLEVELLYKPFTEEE

B1: SYT1-SMPC2A (Arabidopsis synaptotagmin 1, SMP and C2A domains, residues N34-E397) (domain or fragment, UniProt Q9SKR2 34-397, looked up)
chain: NDVKDPEIRSIADQDPKAMLRMLPEIPLWVKNPDFDRVDWINRFLEYMWPYLDKAICKTAKNIAKPIIEEQIPKYKIDSVEFETLTLGSLPPTFQGMKVYLTDEKELIMEPCLKWAANPNILVAIKAFGLKATVQVVDLQVFAQPRITLKPLVPSFPCFANIYVSLMEKPHVDFGLKLGGADLMSIPGLYRFVQEQIKDQVANMYLWPKTLVVPILDPAKAFRRPVGIVHVKVVRAVGLRKKDLMGGADPFVKIKLSEDKIPSKKTTVKHKNLNPEWNEEFKFSVRDPQTQVLEFSVYDWEQVGNPEKMGMNVLALKEMVPDEHKAFTLELRKTLDGGEDGQPPDKYRGKLEVELLYKPFTEEE
notes: Expressed from pGEX6P1; also called SMP2C2A; source: E. coli Rosetta 2 (DE3) pLysS, purified (Glutathione Sepharose 4B, GST cleaved with Precission protease, Superdex 200)

Tests used:
[1] = target: T1, SYT1C2A; experiment: thermal shift, label-free nanoDSF (Tycho NT.[…]); assay type: binding; conditions: 58 μM ligand, 5.8 μM protein, 20 μM EGTA, Tris-HCl pH 8.0; absolute inflexion temperature, unbound control 57.4 ± 0.5; polybasic site
[2] = target: the molecule itself; experiment: SAXS (SEC-SAXS); 45 ul of SYT1SMPC2A at 6.6 mg ml^-1 injected onto Superdex 200 increase 3.2/300 at 20°C; 20 mM Tris pH 8, 100 mM NaCl, 5% glycerol, 2 mM DTT; molecular mass from the Porod volume

| Molecule | SYT1C2A [1] [°C] | stoichiometry N [2] |
| --- | --- | --- |
| O=P(O)(O)O[C@H]1[C@H](O)[C@@H](O)[C@H](OP(=O)(O)O)[C@@H](O)[C@H]1O [IP2, inositol 1,4-biphosphate] | 59.4 ± 0.2 |  |
| O=P(O)(O)O[C@@H]1[C@H](O)[C@H](O)[C@@H](OP(=O)(O)O)[C@H](OP(=O)(O)O)[C@H]1O [IP3, inositol 1,4,5-trisphosphate] | 62.60 ± 0.05 |  |
| O=P(O)(O)O[C@H]1[C@H](O)[C@@H](O)[C@H](OP(=O)(O)O)[C@@H](OP(=O)(O)O)[C@H]1O [IP(1,3,4), inositol 1,3,4-trisphosphate] | 64.2 ± 0.1 |  |
| O=P(O)(O)O[C@@H]1[C@@H](OP(=O)(O)O)[C@H](OP(=O)(O)O)[C@@H](O)[C@@H](O)[C@H]1OP(=O)(O)O [IP(1,4,5,6), inositol 1,4,5,6-tetraphosphate] | 62.6 ± 0.2 |  |
| O=P(O)(O)O[C@H]1[C@H](OP(=O)(O)O)[C@@H](OP(=O)(O)O)[C@@H](O)[C@@H](O)[C@@H]1OP(=O)(O)O [IP(3,4,5,6), inositol 3,4,5,6-tetraphosphate] | 65.2 ± 0.4 |  |
| B1 |  | 2 |
